From ChEMBL document CHEMBL1143263, “HY253, a novel compound isolated from Aralia continentalis, induces apoptosis via cytochrome c-mediated intrinsic pathway in HeLa cells” (Bioorg Med Chem Lett, 2009)
Calls of active or inactive are those of the source. The calls are words filed in the database; no cut-off is given here.

Assays:
Type in all cases: functional, cell-based
HeLa [1] = test: Induction of apoptosis in human HeLa cells assessed as fragmented apoptotic bodies at 100 uM after 24 hrs by DAPI staining
HeLa [2] = test: Induction of apoptosis in human HeLa cells assessed as increase in pro-apoptotic Bak protein at 100 uM after 24 hrs by Western blot
HeLa [3] = test: Induction of apoptosis in human HeLa cells assessed as caspase-9 activation at 100 uM by Western blot
HeLa [4] = test: Induction of apoptosis in human HeLa cells assessed as increase in pro-apoptotic Bax protein at 100 uM after 24 hrs by Western blot
HeLa [5] = test: Induction of apoptosis in human HeLa cells assessed as caspase-3 activation at 100 uM by Western blot
HeLa [6] = test: Induction of apoptosis in human HeLa cells assessed as caspase-8 activation at 100 uM by Western blot
HeLa [7] = test: Antiproliferative activity against human HeLa cells after 48 hrs by MTT assay
HeLa [8] = test: Induction of apoptosis in human HeLa cells assessed as cytochrome C release from mitochondria at 100 uM after 24 hrs by confocal microscopy
HeLa [9] = test: Induction of apoptosis in human HeLa cells at 100 uM after 24 hrs by TUNEL assay
HeLa [10] = test: Induction of apoptosis in human HeLa cells at 100 uM after 48 hrs by TUNEL assay
HeLa [11] = test: Induction of apoptosis in human HeLa cells assessed as PARP cleavage at 100 uM by Western blot

C=CC1CCC2(O)C(C=C)(C1)CC1(O)CC(O)C=CC12O (configuration not stated)
Activity (HeLa [1]): Active
Activity (HeLa [2]): Active
Activity (HeLa [3]): Active
Activity (HeLa [4]): Active
Activity (HeLa [5]): Active
Activity (HeLa [6]): Active
Activity (HeLa [7]): Dose-dependent effect
IC50 (HeLa [7]): 81.5 µM
Activity (HeLa [8]): Active
Activity (HeLa [9]): Active
Activity (HeLa [10]): Active
Activity (HeLa [11]): Active
